Measured values published in US20220362122A1, “Hair Treatment Compositions With Amine Derivatives” (ELC Management LLC, priority 2021, published 2022).
Entries after “also recorded” stand apart in the source; their conditions may differ. Like-named read-outs stand apart in the source and are kept apart here. Marks after values point to notes of the source that are not given here.

Key:
[1] = alkalizer composition; 22° C., T-F spindle, 6 rpm
[2] = for Lifting level normalized to NH3•H2O / Relative lifting level in percentage (LVirgin-LAlkalizer)/(LVirgin-LNaOH) / ΔL (change in color lifting) LVirgin-LAlkalizer: single alkalizer compositions, Table 5; for lifting of natural hair color, comparison in words: single alkalizer/oxidizer mixtures; for L Value: single alkalizer composition + volume 40 oxidizer developer on hair tresses, 37° C., 45 minutes, virgin 19
[3] = alkalizer composition
[4] = pH of alkalizer composition
keratinocytes = experiment: MultiTox-Fluor Multiplex Cytotoxicity Assay, keratinocytes; type: cell-based; settings: for toxicity to the cell, comparison in words: keratinocytes
Description: (§1) The effects of alkalizer compositions on outer root sheath cells and on keratinocytes was evaluated. The MultiTox-Fluor Multiplex Cytotoxicity Assay (Promega Corp., Madison, Wis.) simultaneously measures two protease activities: one is a marker of cell viability, and the other is a marker of cytotoxicity. In the assays, the responses of outer root sheath cells and keratinocytes to various concentrations of alkalizers were measured, and IC50, the concentration that provokes a mid-height response (midway between the baseline response and maximal response), was determined.

outer root sheath cells = experiment: MultiTox-Fluor Multiplex Cytotoxicity Assay, outer root sheath cells; type: cell-based; settings: for IC50: greater IC50 = less stress on the cells, unit inferred; for toxicity to the cell, comparison in words: outer root sheath cells
Description: as §1

[5] = Table 12 AEPD-Tris series, mole ratio AEPD/Tris, virgin hair 20.4
[6] = alkalizer composition: Table 2 base + alkalizer, same molar percentage
[7] = Table 13 Serinol-Tris series, mole ratio Serinol/Tris, virgin hair 20.4

| Molecule | Viscosity (cP × 10^5) [1] [cP × 10^5] | Lifting level normalized to NH3•H2O [2] | Relative lifting level in percentage (LVirgin-LAlkalizer)/(LVirgin-LNaOH) [2] [%] | ΔL (change in color lifting) LVirgin-LAlkalizer [2] | lifting of natural hair color, comparison in words [2] | % Relative damage level compared to NaOH (TVirgin-TAlkalizer)/(TVirgin-TNaOH) (keratin in hair) [%] | Damage level normalized to NH3•H2O (keratin in hair) | ΔT (change in denaturation temperature) TVirgin-TAlkalizer (keratin in hair) | Alkalinity [3] [mL/g] | pH [4] | toxicity to the cell, comparison in words (keratinocytes) | L Value [2] | denaturation temperature in binary combinations, in words (keratin in hair) | hair damage / denaturation temperature, comparison in words (keratin in hair) | toxicity to the cell, comparison in words (outer root sheath cells) | pH [4, 6] | other results |
| --- | --- | --- | --- | --- | --- | --- | --- | --- | --- | --- | --- | --- | --- | --- | --- | --- | --- |
| 3-Amino-1-propanol [AP] | 3.26 | 1.20 | 102.27 | −18 | better at lifting natural hair color than the ammonium hydroxide/oxidizer mixture; also recorded: outperformed all of them | 83.97 | 4.30 | 12 | 3.10 | 11.49 | – | – | – | – | – | – | Denaturation Temperature (° C.) (keratin in hair): 138.42 °C |
| CCC(N)(CO)CO [AEPD, 2-Amino-2-ethyl-1,3-propanediol] | 4.47 | 0.73 | 62.50 | −11 | not quite as good as secondary amine alkalizer, DEA, but close | 29.18 | 1.49 | 4.17 | 2.40 | – | significantly less toxic than ammonium hydroxide | 30 | lowered the denaturation temperature, but only slightly | performed significantly better than MEA and AMP | significantly less toxic than ammonium hydroxide | 10.33 | L* value ([2]; Table 7 AEPD-NH3 series, mole ratio AEPD/NH3, virgin hair 20.2): 30; L* value [2, 5]: 30.4; IC50 (outer root sheath cells): 87 mM |
| CC(C)(N)CO [AMP, aminomethyl propanol, reference compound] | 1.81 | 0.90 | 76.70 | −13.5 | – | 60.11 | 3.08 | 8.59 | 2.32 | – | more toxic to the cell than ammonium hydroxide | 32.5 | – | – | more toxic to the cell than ammonium hydroxide | 10.91 | – |
| CC(N)(CO)CO [AMPD, 2-Amino-2-methyl-1,3-propanediol] | 3.84 | 0.87 | – | −13 | almost as good as MEA and ammonium hydroxide | – | 1.63 | 4.54 | 2.49 | 10.28 | significantly less toxic than ammonium hydroxide | – | – | – | significantly less toxic than ammonium hydroxide | – | – |
| OCCNCCO [DEA, Diethanolamine] | 5.09 | 0.77 | – | −11.5 | – | – | 0.64 | 1.79 | 2.57 | 10.35 | – | – | – | less damaging to hair than the ammonium hydroxide composition | – | – | – |
| CN(C)C(C)(C)CO [DMAMP, 2-Dimethyl-amino-2-methyl-1-propanol] | 0.211 | 0.47 | 39.77 | −7 | – | 18.05 | 0.92 | 2.58 | 2.38 | – | more toxic than ammonium hydroxide, but less toxic than conventional replacement AMP; also recorded: less toxic to keratinocytes than MEA; also recorded: more toxic to the cell than ammonium hydroxide | 26 | raised the denaturation temperature | less damaging to hair than the ammonium hydroxide composition | more toxic than ammonium hydroxide, but less toxic than conventional replacement AMP; also recorded: more toxic to the cell than ammonium hydroxide | 11.15 | IC50 (keratinocytes; Keratinocyte, greater IC50 = less stress on the cells, unit inferred): 33 mM; L* value ([2]; Table 8A DMAMP-NH3 series, mole ratio DMAMP/NH3, virgin hair 20.3): 26; L* value ([2]; Table 8B DMAMP-NH3 in low DMAMP percentages, mole ratio DMAMP/NH3, virgin hair 20.3): 24.9; IC50 (outer root sheath cells): 18 mM |
| [Na+].[OH-] [NaOH, reference compound] | – | 1.17 | 100 | −17.6 | – | 100 | 5.12 | 14.29 | – | – | – | 36.6* | – | – | – | – | – |
| NC(CO)CO [Serinol, 2-Amino-1,3-propanediol] | 10.1 | 0.80 | 68.18 | −12 | performed significantly less well than ammonium hydroxide | 22.32 | 1.14 | 3.19 | 2.55 | – | – | 31 | lowered the denaturation temperature, but only slightly | – | – | 10.22 | L* value ([2]; Table 10 Serinol-NH3 series, mole ratio Serinol/NH3, virgin hair 19.9): 31.2; L* value [2, 7]: 31.2 |
| NC(CO)(CO)CO [Tris, Tromethamine] | 4.17 | 0.53 | – | −8 | as good as tertiary alkalizer DMAP | – | 0.51 | 1.42 | 2.43 | – | – | 27 | – | also performed well | – | 9.6 | L* value ([2]; Table 9 Tris-NH3 series, mole ratio Tris/NH3, virgin hair 20.0): 28; L* value ([2]; Table 11 AMPD-Tris series, mole ratio AMPD/Tris, virgin hair 20.3): 28; L* value [2, 5]: 28.5; L* value [2, 7]: 28.5; L* value / color lifting in binary combinations, in words ([2]; binary combinations of alkalizers): tends to reduce the effectiveness of color lifting |
| Ammonium hydroxide [reference compound] | – | – | – | – | – | – | 1 | 2.79 | – | 10.72 | – | – | – | – | – | – | – |
